Measured values published in ChEMBL document CHEMBL1123354, “Antitumor agents. 78. Inhibition of human DNA topoisomerase II by podophyllotoxin and alpha-peltatin analogues” (J Med Chem, 1986).

Experiments:
[1] = target: T1, DNA topoisomerase II (Homo sapiens) (UniProt P11388+Q02880); experiment: (§1) Compound was tested for percentage inhibition against DNA topoisomerase II; assay type: protein assay; conditions: concentration not given here
[2] = target: T1, DNA topoisomerase II (Homo sapiens); experiment: as §1; assay type: protein assay; parameters: concentration or dose not given beside the values; conditions: concentration not given here

SMILES | inhibition [1] [%] | inhibition [2] [%]
COc1cc([C@@H]2c3cc4c(cc3[C@@H](O)C3COC(=O)[C@@H]32)OCO4)cc(O)c1O (some centres undefined) | 75 | –
COc1cc([C@@H]2c3cc4c(cc3[C@@H](O)[C@H]3COC(=O)[C@H]23)OCO4)cc(OC)c1O | – | 60
COc1cc([C@@H]2c3cc4c(c(O)c3C[C@H]3COC(=O)[C@@H]32)OCO4)cc(OC)c1O | – | 20
COc1cc([C@@H]2c3cc4c(cc3[C@H](O)[C@H]3COC(=O)[C@H]23)OCO4)cc(OC)c1OC | – | 30
COc1cc([C@@H]2c3cc4c(cc3[C@@H](O[C@@H]3O[C@@H]5CO[C@@H](C)O[C@H]5[C@H](O)[C@H]3O)[C@H]3COC(=O)[C@H]23)OCO4)cc(OC)c1O | – | 85
CCO[C@@H]1c2cc3c(cc2[C@@H](c2cc(OC)c(O)c(OC)c2)[C@H]2C(=O)OCC12)OCO3 (some centres undefined) | – | 89
COc1cc([C@@H]2c3cc(OC(C)=O)c(OC(C)=O)c(OC(C)=O)c3CC3COC(=O)[C@@H]32)cc(OC)c1OC(C)=O (some centres undefined) | 25 | –
COc1cc([C@@H]2c3cc(O)c(O)c(O)c3CC3COC(=O)[C@@H]32)cc(OC)c1O (some centres undefined) | 45 | –
COc1cc([C@@H]2c3cc4c(c(OC(C)=O)c3CC3COC(=O)[C@@H]32)OCO4)cc(OC)c1OC(C)=O (some centres undefined) | 10 | –
